Activity calls are given as the source filed them. The rule behind the calls is not given here.
Tests used:
Assay type in all cases: functional
Mus musculus = species: Mus musculus; assay: Effect on electrically evoked contractions in mouse vas deferens at 10E-8 to 10E-6 M concentration; No effect
Cavia porcellus = species: Cavia porcellus; assay: Effect on electrically evoked contractions in […] plexus longitudinal muscles of guinea pig at 10E-8 to 2.4E-6 M; No effect; settings: Muscle tissue
[1] = Effect on cannabinoid tetrad (nociception, temperature, spontaneous motility and catalepsy) of behavioral test; inhibit spontaneous motility
[2] = Effect on cannabinoid tetrad (nociception, temperature, spontaneous motility and catalepsy) of behavioral test; induce catalepsy
[3] = Effect on cannabinoid tetrad (nociception, temperature, spontaneous motility and catalepsy) of behavioral test; induce hypothermia
[4] = Effect on cannabinoid tetrad (nociception, temperature, spontaneous motility and catalepsy) of behavioral test; induce antinociception
[5] = Effect on cannabinoid tetrad (nociception, temperature, spontaneous motility and catalepsy) of behavioral test; no significant effect

| SMILES | Activity (Mus musculus) | Activity (Cavia porcellus) | further results |
| --- | --- | --- | --- |
| CCCCCCc1nc(-c2ccc(Cl)cc2Cl)n(-c2ccc(Cl)cc2Cl)n1 | inactive | inactive |  |
| Cc1c(C(=O)c2cccc3ccccc23)c2cccc3c2n1[C@H](CN1CCOCC1)CO3 |  |  | Activity [1]: Active; Activity [2]: Active; Activity [3]: Active; Activity [4]: Active |
| CCc1nc(-c2ccc(Cl)cc2)n(-c2ccccc2)n1 | inactive | inactive |  |
| CCCCCCc1nc(-c2ccc(Cl)cc2)n(-c2ccc(Cl)cc2Cl)n1 | inactive | inactive | Activity [5]: inactive |
| CCCCCCc1nc(-c2ccc(Cl)cc2)n(-c2ccc(Cl)cc2)n1 | inactive | inactive |  |
| CCc1nc(-c2ccc(Cl)cc2)n(-c2ccc(Cl)cc2)n1 | inactive | inactive |  |
| CCCCCCCc1nc(-c2ccccc2)n(-c2ccccc2)n1 | inactive | inactive |  |
